{"source": "the NIST ThermoML archive (doi:10.1021/je200039y)", "key": {"[1]": {"assay": "refractive index (Na D-line) (dimensionless)", "details": "298 K; 101.33 kPa; Liquid; Standard Abbe refractometry"}, "[2]": {"details": "Liquid"}, "[3]": {"details": "350.3 K, Closed cell (Static) method"}, "[4]": {"details": "350.43 K, Closed cell (Static) method"}, "[5]": {"details": "343.15 K, Ebulliometric method (Recirculating still)"}}, "note": "± gives the expanded uncertainty stated by the source.", "data": [{"smiles": "Cc1ccccc1C", "note": "[1,2-dimethylbenzene]", "values": [{"measurement": "refractive index", "setting": "[1]", "value": "1.5026 ± 0.0007"}]}, {"smiles": "CSSC", "note": "[2,3-dithiabutane]", "values": [{"measurement": "vapor or sublimation pressure", "setting": "[2]; 343.15 K, Closed cell (Static) method", "value": "27.8 ± 0.4", "unit": "kPa"}, {"measurement": "vapor or sublimation pressure", "setting": "[2]; [3]", "value": "36.1 ± 0.8", "unit": "kPa"}, {"measurement": "vapor or sublimation pressure", "setting": "[2]; 350.38 K, Closed cell (Static) method", "value": "36 ± 0.8", "unit": "kPa"}, {"measurement": "vapor or sublimation pressure", "setting": "[2]; [4]", "value": "35.8 ± 0.8", "unit": "kPa"}, {"measurement": "vapor or sublimation pressure", "setting": "[2]; 350.55 K, Closed cell (Static) method", "value": "36.1 ± 0.8", "unit": "kPa"}, {"measurement": "refractive index", "setting": "[1]", "value": "1.5226 ± 0.0007"}]}, {"smiles": "CCOC(C)(C)C", "note": "[2-ethoxy-2-methylpropane]", "values": [{"measurement": "vapor or sublimation pressure", "setting": "[2]; [5]", "value": "92.9 ± 0.7", "unit": "kPa"}, {"measurement": "refractive index", "setting": "[1]", "value": "1.373 ± 0.0007"}]}, {"smiles": "CC(C)C", "note": "[2-methylpropane]", "values": [{"measurement": "vapor or sublimation pressure", "setting": "[2]; 350.54 K, Closed cell (Static) method", "value": "1269.5 ± 5.5", "unit": "kPa"}]}, {"smiles": "C=C(C)C", "note": "[2-methylpropene]", "values": [{"measurement": "vapor or sublimation pressure", "setting": "[2]; [4]", "value": "1154.3 ± 5", "unit": "kPa"}]}, {"smiles": "C/C=C/C", "note": "[(E)-2-butene]", "values": [{"measurement": "vapor or sublimation pressure", "setting": "[2]; [3]", "value": "929.2 ± 4", "unit": "kPa"}]}, {"smiles": "CCCC", "note": "[butane]", "values": [{"measurement": "vapor or sublimation pressure", "setting": "[2]; 350.36 K, Closed cell (Static) method", "value": "951.7 ± 4.1", "unit": "kPa"}]}, {"smiles": "CCO", "note": "[ethanol]", "values": [{"measurement": "vapor or sublimation pressure", "setting": "[2]; [5]", "value": "72.5 ± 0.6", "unit": "kPa"}, {"measurement": "refractive index", "setting": "[1]", "value": "1.3593 ± 0.0007"}]}]}
